In patent US20150143553A1, “Methods And Compositions Comprising A Drosophila Model Of Amyotrophic Lateral Sclerosis” (priority 2013, published 2015):
Counter-ions that a name gives are not always drawn.

How the values were obtained:
[1] = tested on: Drosophila larvae expressing wild-type TDP-43 in motor neurons; experiment: Drug screen: rescue of lethality caused by wild-type TDP-43 expression in motor neurons (D42 Gal4); format: in vivo; settings: for Preliminary rescue result: adults with normal wings: transgene WT2
[2] = tested on: cytochrome P450; settings: cited from earlier work
[3] = tested on: Drosophila larvae expressing D169G TDP-43 in motor neurons; experiment: Drug screen: rescue of lethality caused by D169G TDP-43 expression in motor neurons (D42 Gal4); format: in vivo; settings: transgene D169G; 30 μM in fly food
[4] = tested on: Drosophila larvae expressing A315T TDP-43 in motor neurons; experiment: Drug screen: rescue of lethality caused by A315T TDP-43 expression in motor neurons (D42 Gal4); format: in vivo; settings: transgene A315T; 50 μM in fly food
Experimental: (§1) 1200 FDA approved drugs from the Prestwick collection were fed to flies expressing TDP-43 at an initial concentration of 50 μM (as previously described in Chang et al., 2008).
(§2) FDA approved drugs from the Prestwick collection (200 mM in DMSO) are mixed with yeast-cornmeal based food and a bromophenol blue (as a mixing indicator) at a final concentration of 50 μM. Larvae expressing TDP-43 (wild type or mutant, as shown) are raised on drug containing food.
(§3) FDA approved drugs from the Prestwick collection (200 mM in DMSO) were mixed with yeast-cornmeal based food and a bromophenol blue (as a mixing indicator) at a final concentration of 50 μM. Larvae expressing TDP-43 (wt or mutant) were raised on drug containing food.
(§4) Using a Drosophila model of ALS based on TDP-43 that recapitulates several aspects of the disease pathophysiology (33, 35), a drug screen aimed at identifying FDA approved compounds with neuroprotective potential in vivo were designed (FIG. 37A). […] This phenotype was used to screen for drug candidates with therapeutic potential as determined by their ability to rescue pupal lethality and produce viable adults with extended wings (FIG. 37A).

[5] = tested on: Drosophila larvae expressing N345K TDP-43 in motor neurons; experiment: Drug screen: rescue of lethality caused by N345K TDP-43 expression in motor neurons (D42 Gal4); format: in vivo; settings: transgene N345K; 50 μM in fly food
Experimental: A drug screen aimed at rescuing the adult lethality caused by wild-type or mutant TDP-43 (D169G, G298S, A315T and N345K) overexpression in motor neurons has been performed (FIG. 11). 1200 FDA approved drugs from the Prestwick collection were fed to flies expressing TDP-43 at an initial concentration of 50 μM (as previously described in Chang et al., 2008). This screening strategy has several advantages including: (1) it is performed in vivo, (2) it is based on a robust phenotype (100% adult lethality), (3) it can lead to rapid identification of drugs that are already approved for use in humans and (4) it can inform the future development of small molecules with enhanced neuroprotective capabilities.
as §2, with “food. In the absence of drugs, TDP-43 expression is lethal at the pupal/pharate stage. Drugs that rescued TDP-43 Induced Lethality (anywhere from 1-12 adults) were considered as candidates for future studies.” for “food.”
as §3, with “food. In the absence of drugs, TDP-43 expression was lethal at the pupal/pharate stage. Drugs that rescue TDP-43 induced lethality (anywhere from 1-12 adults) were considered as candidates for future studies.” for “food.”
Using a Drosophila model of ALS based on TDP-43 that recapitulates several aspects of the disease pathophysiology (33, 35), a drug screen aimed at identifying FDA approved compounds with neuroprotective potential in vivo were designed (FIG. 37A). […] This phenotype was used to screen for drug candidates with therapeutic potential as determined by their ability to rescue pupal lethality and produce viable adults with extended wings (FIG. 37A). […]

[6] = tested on: Drosophila larvae expressing D169G TDP-43 in motor neurons; experiment: Drug screen: rescue of lethality caused by D169G TDP-43 expression in motor neurons (D42 Gal4); format: in vivo; settings: transgene D169G; 50 μM in fly food
Experimental: as §1, §2, §3, §4

[7] = tested on: Drosophila larvae expressing G298S TDP-43 in motor neurons; experiment: Drug screen: rescue of lethality caused by G298S TDP-43 expression in motor neurons (D42 Gal4); format: in vivo; settings: transgene G298S; 30 μM in fly food
Excerpt: […] Larvae expressing TDP-43 (wild type or mutant, as shown) are raised on drug containing food.
[…] Larvae expressing TDP-43 (wt or mutant) were raised on drug containing food.
as §4
Larvae expressing TDP-43 in motor neurons (D42>TDP-43) were raised on fly food containing different amounts of drug (1, 10 and 25 μM, see Materials and Methods for details) or Dimethyl Sulfoxide (DMSO) as vehicle control (FIG. 37B, C).
UAS TDP-43 males were crossed with D42-Gal4 female virgins on fly food containing either DMSO or pioglitazone. For DMSO controls, the same volume of DMSO as the corresponding drug concentration was added. Bromophenol blue was added to a final concentration of approximately 0.02% to ensure homogeneity. Crosses were made on drug food with 3 female virgins and 2 males in each vial, and were maintained at 25° C. unless noted. The parents were discarded after 5-7 days then the vials were screened for adult progeny with straight wings from day 14 to day 25. All adults were screened for TDP-43 expression by visualizing the YFP tag. Total number of pupae was counted on day 25. Percent survival was calculated using the formula (total number of straight-winged adults/total number of pupae)×100. All experiments were performed in triplicate.

For `Cc1c(C)c2c(c(C)c1O)CCC(C)(COc1ccc(CC3SC(=O)NC3=O)cc1)O2` (stereo not shown) [Troglitazone], the “Preliminary rescue result: adults with normal wings” value (“Preliminary rescue result: adults” for short) ([1]; 50 μM in fly food) is listed as 2 Adults Normal Wings, the “Rescue Effect” value ([1]; transgene wt, primary screening (50 μM), out of 15-20 pupae) is listed as 2 adults and the “activity in high-throughput screen for modulators of cytochrome P450” value [2] is listed as “active”.
In the case of Tyloxapol, the “Preliminary rescue result: adults” value [3] was 1 Adult Normal Wings Adults.
In the case of `CC(C)NC[C@@H](O)COc1ccc(CC(N)=O)cc1` [R-(+)-Atenolol], the “Preliminary rescue result: adults” value ([1]; 30 μM in fly food) was 2 Adults and the “Preliminary rescue result: adults” value [3] was 1 Adults.
With `OCc1cc(C(O)CNCCCCCCOCCCCc2ccccc2)ccc1O` (stereo not shown) [Salmeterol] the “Preliminary rescue result: adults” value ([1]; 30 μM in fly food) was 1 Adult Normal Wings × 2 Adults and the “Preliminary rescue result: adults” value [3] was 1 Adult Normal Wings × 2 Adults.
With `CN1CCCN(C(c2ccccc2)c2ccc(Cl)cc2)CC1` (stereo not shown) [Homochlorcyclizine] the “Preliminary rescue result: adults” value ([1]; 50 μM in fly food) was 3 Adults Normal Wings, and the “Preliminary rescue result: adults” value [4] was 1 Adult Normal Wings Adults.
In the case of `CN1C(=O)CCS(=O)(=O)C1c1ccc(Cl)cc1` (stereo not shown) [Chlormezanone], the “Preliminary rescue result: adults” value [5] was 1 Adult Normal Wings Adults.
For `CCCC(C)C1(CC)C(=O)NC(=O)NC1=O` (stereo not shown) [Pentobarbital], the “Preliminary rescue result: adults” value [4] was 3 Adult Normal Wings Adults.
For `CCCCNc1ccc(C(=O)OCCN(C)C)cc1` [Tetracaine Hydrochloride], the “Preliminary rescue result: adults” value [4] was 2 Adult Normal Wings Adults.
With `Clc1ccc(C(Cn2ccnc2)OCc2ccsc2Cl)c(Cl)c1` (stereo not shown) [Tioconazole] the “Preliminary rescue result: adults” value [4] was 2 Adults Normal Wings.
In the case of `CN(C)CCC=C1c2ccccc2C=Cc2ccccc21` [Cyclobenzaprine HCl], the “Preliminary rescue result: adults” value [6] was 1 Adult Normal Wings Adults.
For `C1CCC(C(CC2CCCCN2)C2CCCCC2)CC1` (stereo not shown) [Perhexiline Maleate], the “Preliminary rescue result: adults” value [5] was 12 Adults.
In the case of `Clc1ccc(Nc2nnc(Cc3ccncc3)c3ccccc23)cc1` [Vatalanib], the “Preliminary rescue result: adults” value [6] was 1 Adult Normal Wings Adults.
With `CC(=O)N[C@@H](CS)C(=O)O` [Acetylcysteine] the “Preliminary rescue result: adults” value [7] was 1 Adults and the “Preliminary rescue result: adults” value [3] was 1 Adults.
With `CCOC(=O)C(C)(C)Oc1ccc(Cl)cc1` [Clofibrate] the “Preliminary rescue result: adults” value [6] was 1 Adult Normal Wings Adults.
With `CC[C@@H](C(N)=O)N1CCCC1=O` [Levetiracetam] the “Preliminary rescue result: adults” value [4] was 3 Adult Normal Wings Adults.
In the case of `CN(C)c1ccc(O)c2c1C[C@H]1C[C@H]3[C@H](N(C)C)C(O)=C(C(N)=O)C(=O)[C@@]3(O)C(O)=C1C2=O` [Minocycline], the “Preliminary rescue result: adults” value [5] was 1 Adult Normal Wings Adults.
